Values quoted from earlier work, collected in patent publication US8986418B1, “Method and system for agricultural fertigation” (priority 2008, dated 2015).
Read-outs that look alike come from different tables or passages of the source.

Structure (SMILES)	Solubility with anion CO3^−2	Solubility with anion CO3^−2 (listed as Fe^+3)	Solubility with anion Cl	Solubility with anion HCO3^−	Solubility with anion HCO3^− (listed as Fe^+3)	Solubility with anion NO3^−	Solubility with anion OH^−	Solubility with anion OH^− (listed as Fe^+3)	Solubility with anion PO4^−3	Solubility with anion SO4^−2	Solubility with anion S^−2
[Fe+2] [Fe^+2]	VSS (VSS means very slightly soluble (20-2,000 ppm))	I (I means insoluble (<20 ppm))	S (S means soluble (over 5,000 ppm))	SS (SS means slightly soluble (2,000 to 5,000 ppm))	I (I means insoluble (<20 ppm))	S (S means soluble (over 5,000 ppm))	VSS (VSS means very slightly soluble (20-2,000 ppm))	I (I means insoluble (<20 ppm))	I (I means insoluble (<20 ppm))	S (S means soluble (over 5,000 ppm))	I (I means insoluble (<20 ppm))
[H+] [H^+]	CO2	–	S (S means soluble (over 5,000 ppm))	S (S means soluble (over 5,000 ppm))	–	S (S means soluble (over 5,000 ppm))	–	–	S (S means soluble (over 5,000 ppm))	S (S means soluble (over 5,000 ppm))	–
[Mg+2] [Mg^+2]	VSS (VSS means very slightly soluble (20-2,000 ppm))	–	S (S means soluble (over 5,000 ppm))	S (S means soluble (over 5,000 ppm))	–	S (S means soluble (over 5,000 ppm))	I (I means insoluble (<20 ppm))	–	I (I means insoluble (<20 ppm))	S (S means soluble (over 5,000 ppm))	–

Results, then the compound that gave them:

Solubility with anion CO3^−2	Solubility with anion CO3^−2 (listed as Fe^+3)	Solubility with anion Cl	Solubility with anion HCO3^−	Solubility with anion HCO3^− (listed as Fe^+3)	Solubility with anion NO3^−	Solubility with anion OH^−	Solubility with anion OH^− (listed as Fe^+3)	Solubility with anion PO4^−3	Solubility with anion SO4^−2	Solubility with anion S^−2	Structure (SMILES)
S (S means soluble (over 5,000 ppm))	–	S (S means soluble (over 5,000 ppm))	S (S means soluble (over 5,000 ppm))	–	S (S means soluble (over 5,000 ppm))	S (S means soluble (over 5,000 ppm))	–	S (S means soluble (over 5,000 ppm))	S (S means soluble (over 5,000 ppm))	S (S means soluble (over 5,000 ppm))	[K+] [K^+]
I (I means insoluble (<20 ppm))	–	S (S means soluble (over 5,000 ppm))	–	–	S (S means soluble (over 5,000 ppm))	I (I means insoluble (<20 ppm))	–	I (I means insoluble (<20 ppm))	S (S means soluble (over 5,000 ppm))	I (I means insoluble (<20 ppm))	[Mn+2] [Mn^+2]
